These are literature values, as cited in US20210054334A1, “DIRECTED DIFFERENTIATION OF ASTROCYTES FROM HUMAN PLURIPOTENT STEM CELLS FOR USE IN DRUG SCREENING AND THE TREATMENT OF AMYOTROPHIC LATERAL SCLEROSIS (ALS)” (Kadimastem Ltd., priority 2013, published 2021).

For this series the following is noted: ALS.

As for `Nc1nc2ccc(OC(F)(F)F)cc2s1` [Rilutek, Riluzole], the extension of lifespan result was “only extends lifespan by a maximum of three months”.
